Test results published in PubChem BioAssay AID2060333 (Molecular Pharmacology Branch, DTP, NCI, 2025).
“And” between values parts separate entries of the source, which are not always exact repeats. Identical values can stand only once.

Tested on: 845751-090-R-J2-PDC tumor spheroid viability
Assay: Anticancer human tumor 845751-090-R-J2-PDC patient-derived head and neck squamous carcinoma cell line growth inhibition [IpAb]
Conditions: spheroids with HUVEC and MSC; for viability, T/C: stronger effect = lower value; active = viability on the fitted dose curve at most 10% of control; inactive = the rest
Outline: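 Spheroids of 60% malignant cells, 25% HUVEC and 15% MSC were exposed to targeted agents combined with ipatasertib or abemaciclib. Doses started at or near clinical Cmax (10 microM when unknown) and fell in half-log steps.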

[1] = curve of first compound, second compound 0.1 µM
[2] = curve of first compound, second compound 0.316 µM
[3] = curve of first compound, second compound 1 µM
[4] = second compound 0.1 µM, first compound 0.0316 µM
[5] = second compound 0.1 µM, first compound 0.1 µM
[6] = second compound 0.316 µM, first compound 0.0316 µM
[7] = second compound 0.316 µM, first compound 0.1 µM
[8] = second compound 1 µM, first compound 0.0316 µM
[9] = second compound 1 µM, first compound 0.1 µM
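Also: spheroids exposed to compounds for 7 days before readout.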
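For viability, T/C in this document: CTG3D luminescence normalised so that 100% = DMSO vehicle control.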

Cn1ncnc1[C@H]1c2n[nH]c(=O)c3cc(F)cc(c23)N[C@@H]1c1ccc(F)cc1 + CC(C)NCC(C(=O)N1CCN(c2ncnc3c2C(C)CC3O)CC1)c1ccc(Cl)cc1
0.0258 µM: IC50 [1]
< 0.000316 µM: IC50 [2] | IC50 [3] | IC50 (curve of first compound, second compound 3.16 µM) | IC50 (curve of first compound, second compound 10 µM)
active: viability, T/C (second compound 10 µM, first compound 0.1 µM) 9.65%
inactive: viability, T/C (second compound 0.1 µM, first compound 0.000316 µM) 53.9% | viability, T/C (second compound 0.1 µM, first compound 0.001 µM) 88.8% | viability, T/C (second compound 0.1 µM, first compound 0.00316 µM) 57% | viability, T/C (second compound 0.1 µM, first compound 0.01 µM) 49.1% | viability, T/C [4] 54.1% | viability, T/C [5] 33.6% | viability, T/C (second compound 0.316 µM, first compound 0.000316 µM) 38.1% | viability, T/C (second compound 0.316 µM, first compound 0.001 µM) 25% | viability, T/C (second compound 0.316 µM, first compound 0.00316 µM) 34.4% | viability, T/C (second compound 0.316 µM, first compound 0.01 µM) 29.6% | viability, T/C [6] 26.1% | viability, T/C [7] 22.3% | viability, T/C (second compound 1 µM, first compound 0.000316 µM) 30.1% | viability, T/C (second compound 1 µM, first compound 0.001 µM) 27.1% | viability, T/C (second compound 1 µM, first compound 0.00316 µM) 23.8% | viability, T/C (second compound 1 µM, first compound 0.01 µM) 28.5% | viability, T/C [8] 22.9% | viability, T/C [9] 20% | viability, T/C (second compound 3.16 µM, first compound 0.000316 µM) 29.6% | viability, T/C (second compound 3.16 µM, first compound 0.001 µM) 22.4% | viability, T/C (second compound 3.16 µM, first compound 0.00316 µM) 20.2% | viability, T/C (second compound 3.16 µM, first compound 0.01 µM) 24.8% | viability, T/C (second compound 3.16 µM, first compound 0.0316 µM) 14.7% | viability, T/C (second compound 3.16 µM, first compound 0.1 µM) 14.8% | viability, T/C (second compound 10 µM, first compound 0.000316 µM) 14.8% | viability, T/C (second compound 10 µM, first compound 0.001 µM) 16.9% | viability, T/C (second compound 10 µM, first compound 0.00316 µM) 12.3% | viability, T/C (second compound 10 µM, first compound 0.01 µM) 10.7% | viability, T/C (second compound 10 µM, first compound 0.0316 µM) 11.6%

Cn1cnc2c(F)c(Nc3ccc(Br)cc3Cl)c(C(=O)NOCCO)cc21
inactive: viability, T/C (compound 0.00949 µM) 107% and 165% | viability, T/C (compound 0.03 µM) 94.5% and 174% | viability, T/C (compound 0.0949 µM) 75% and 136% | viability, T/C (compound 0.3 µM) 82.8% and 125% | viability, T/C (compound 0.949 µM) 80.4% and 122% | viability, T/C (compound 3 µM) 65.8% and 67.1%
> 3 µM: IC50 (curve of compound)

CC1(C)CCC(CN2CCN(c3ccc(C(=O)NS(=O)(=O)c4ccc(NCC5CCOCC5)c([N+](=O)[O-])c4)c(Oc4cnc5[nH]ccc5c4)c3)CC2)=C(c2ccc(Cl)cc2)C1 + CCN1CCN(Cc2ccc(Nc3ncc(F)c(-c4cc(F)c5nc(C)n(C(C)C)c5c4)n3)nc2)CC1
6.37 µM: IC50 [1]
7.51 µM: IC50 (curve of first compound, second compound 0.01 µM)
inactive: viability, T/C (second compound 0.01 µM, first compound 0.0316 µM) 104% | viability, T/C (second compound 0.01 µM, first compound 0.1 µM) 119% | viability, T/C (second compound 0.01 µM, first compound 0.316 µM) 103% | viability, T/C (second compound 0.01 µM, first compound 1 µM) 91.3% | viability, T/C (second compound 0.01 µM, first compound 3.16 µM) 138% | viability, T/C (second compound 0.01 µM, first compound 10 µM) 29.8% | viability, T/C (second compound 0.0316 µM, first compound 0.0316 µM) 136% | viability, T/C (second compound 0.0316 µM, first compound 0.1 µM) 90.5% | viability, T/C (second compound 0.0316 µM, first compound 0.316 µM) 80.8% | viability, T/C (second compound 0.0316 µM, first compound 1 µM) 93.6% | viability, T/C (second compound 0.0316 µM, first compound 3.16 µM) 137% | viability, T/C (second compound 0.0316 µM, first compound 10 µM) 24.4% | viability, T/C [4] 75% | viability, T/C [5] 72.2% | viability, T/C (second compound 0.1 µM, first compound 0.316 µM) 94.6% | viability, T/C (second compound 0.1 µM, first compound 1 µM) 104% | viability, T/C (second compound 0.1 µM, first compound 3.16 µM) 117% | viability, T/C (second compound 0.1 µM, first compound 10 µM) 22.7% | viability, T/C [6] 74.6% | viability, T/C [7] 108% | viability, T/C (second compound 0.316 µM, first compound 0.316 µM) 92.3% | viability, T/C (second compound 0.316 µM, first compound 1 µM) 85.3% | viability, T/C (second compound 0.316 µM, first compound 3.16 µM) 115% | viability, T/C (second compound 0.316 µM, first compound 10 µM) 21.6% | viability, T/C [8] 106% | viability, T/C [9] 107% | viability, T/C (second compound 1 µM, first compound 0.316 µM) 102% | viability, T/C (second compound 1 µM, first compound 1 µM) 115% | viability, T/C (second compound 1 µM, first compound 3.16 µM) 123% | viability, T/C (second compound 1 µM, first compound 10 µM) 18.5%
6.41 µM: IC50 [2]
7.03 µM: IC50 (curve of first compound, second compound 0.0316 µM)
6.75 µM: IC50 [3]

CC1(C)CCC(CN2CCN(c3ccc(C(=O)NS(=O)(=O)c4ccc(NCC5CCOCC5)c([N+](=O)[O-])c4)c(Oc4cnc5[nH]ccc5c4)c3)CC2)=C(c2ccc(Cl)cc2)C1
inactive: viability, T/C (compound 0.0316 µM) 124% and 120% | viability, T/C (compound 0.1 µM) 111% and 103% | viability, T/C (compound 0.316 µM) 145% and 85.5% | viability, T/C (compound 1 µM) 198% and 117% | viability, T/C (compound 3.16 µM) 221% and 138% | viability, T/C (compound 10 µM) 37.6% and 25.7%
8.9 µM and 7.24 µM: IC50 (curve of compound)
